Patent US20220331303A1, “USE OF AN OREXIN 2 RECEPTOR AGONIST FOR THE TREATMENT OF EXCESSIVE SLEEPINESS” (Takeda Pharmaceutical Company Limited, priority 2019, published 2022)
Entries after “also recorded” stand apart in the source; their conditions may differ.

Legend:
[1] = tested on: sleep-deprived healthy volunteers; test: Polysomnography (PSG) of recovery sleep after sleep deprivation in healthy volunteers; format: in vivo, human
Method: Exploratory objectives in sleep-deprived healthy volunteers were as follows: • 1. To compare the effects of Compound A (LD and HD) and modafinil (300 mg) on promoting wakefulness as measured by MWT. • 2. To determine PK-PD relationships for selected PD measures. • 3. To evaluate PK-BP relationships in BP change after Compound A administration. • 4. To compare various polysomnography (PSG) parameters between Day −1 (predose) and Day 2 (recovery sleep). • 5. To determine whether there is any difference in the PSG parameters on Day 2 (recovery sleep) between Compound A and placebo or modafinil. • 6. To evaluate the continuous electroencephalogram (EEG) obtained during the MWTs for power spectra changes for Compound A (LD and HD) versus placebo, Compound A (LD and HD) versus modafinil, and modafinil versus placebo.
(§1) During the day before dosing on Day 1, participants were administered the KSS at scheduled timepoints. A practice MWT session was performed on Day 1 treatment period 1 (only once during the entire study) to familiarize subjects with the procedures. Study drug was administered in the clinic in the evening on Day 1 of each treatment period. Subjects underwent the MWT and KSS at specified timepoints after the start of the infusion. Subjects were required to stay awake between the MWT tests. Following completion of the IV infusion on Day 2, subjects underwent an additional MWT test. When the final MWT test and cognitive testing were completed, subjects were allowed to sleep (recovery sleep) for approximately 6 hours. PSG recording was collected during this time. Subjects were discharged from the unit after completion on Day 2 with continuing actigraphy upon discharge (to begin on Day −6 before the next treatment period). The interval between each subsequent treatment period was at least 7 days to ensure that the subject's circadian rhythm had returned to a normal cycle. Subject's vital signs, including BP, were monitored during the dosing and testing period. Blood samples for determination of Compound A plasma concentrations were collected at specified timepoints on Days 1 and 2 of each treatment period. Subjects completed the Columbia-Suicide Severity Rating Scale (C-SSRS) during screening, before study drug administration, and before discharge on Day 2 of each treatment period.
The PSGs assess recovery sleep during the day after the end of the sleep deprivation period. There were no corrections for multiple comparisons. […]

[2] = tested on: sleep-deprived healthy volunteers; test: Safety/tolerability of a single dose in sleep-deprived healthy adults; format: in vivo, human
Method: as §1
Safety endpoints: adverse events (AEs), physical examinations, vital signs, 12-lead electrocardiograms (ECGs), clinical laboratory evaluations (hematology, blood chemistry, and urinalysis), drug-liking visual analogue scale, and Profile of Mood States.

[3] = Compound A 112 mg, recovery sleep
[4] = HD: Compound A 112 mg, recovery sleep
[5] = LD: Compound A 44 mg, recovery sleep

## COC(=O)N1CCC[C@H](NS(C)(=O)=O)[C@@H]1CO[C@H]1CC[C@@H](c2ccccc2)CC1 [Compound A, methyl (2R,3S)-3-((methylsulfonyl)amino)-2-(((cis-4-phenylcyclohexyl)oxy)methyl)piperidine-1-carboxylate]
[1]; Compound A 44 mg, recovery sleep
  PSG N2 latency, LS mean difference vs placebo: -2.74 min
[1]; [3]
  PSG REM latency, LS mean difference vs placebo: 29.64 min
  PSG stage REM %, LS mean difference vs placebo: −5.66%
  PSG stage REM duration, LS mean difference vs placebo: -19.73 min
[1]; HD: Compound A 112 mg
  Stage N3 Duration LS Mean: 87.23 min
  Stage N3 Duration LS Mean Difference vs placebo Estimate: 5.85 min
  Stage REM % LS Mean: 15.72%
  Stage REM % LS Mean Difference vs placebo Estimate: −5.66%
  Stage REM Duration LS Mean: 46.83 min
  Stage REM Duration LS Mean Difference vs placebo Estimate: -19.73 min
  Stage Wake % LS Mean: 11.14%
  Stage Wake % LS Mean Difference vs placebo Estimate: 0.84%
  Stage Wake Duration LS Mean: 36.46 min
  Stage Wake Duration LS Mean Difference vs placebo Estimate: 0.93 min
  Total Arousal Index LS Mean: 9.18
  Total Arousal Index LS Mean Difference vs placebo Estimate: −0.81
  Total Arousal LS Mean: 46.54
  Total Arousal LS Mean Difference vs placebo Estimate: −3.87
  Total Leg Movements LS Mean: 16.94
  Total Leg Movements LS Mean Difference vs placebo Estimate: −2.01
  Total Leg Movements N1 LS Mean: 1.41
  Total Leg Movements N1 LS Mean Difference vs placebo Estimate: 0.15
  Total Leg Movements N2 LS Mean: 7.59
  Total Leg Movements N2 LS Mean Difference vs placebo Estimate: −0.95
  Total Leg Movements N3 LS Mean: 2.72
  Total Leg Movements N3 LS Mean Difference vs placebo Estimate: 1.09
  Total Leg Movements REM LS Mean: 4.18
  Total Leg Movements REM LS Mean Difference vs placebo Estimate: −1.57
  Total Leg Movements with Awakening LS Mean: 0.84
  Total Leg Movements with Awakening LS Mean Difference vs placebo Estimate: −0.91
  Total Leg Movements with Microarous LS Mean: 2.14
  Total Leg Movements with Microarous LS Mean Difference vs placebo Estimate: 0.13
  Total Leg Movements with Resp Event LS Mean: 0.06
  Total Leg Movements with Resp Event LS Mean Difference vs placebo Estimate: 0.01
  Total Leg Movements without Arousal LS Mean: 14.77
  Total Leg Movements without Arousal LS Mean Difference vs placebo Estimate: −2.15
  Total Recording Time LS Mean: 351.06 min
  Total Recording Time LS Mean Difference vs placebo Estimate: -5.85 min
  Total Sleep Time LS Mean: 298.98 min
  Total Sleep Time LS Mean Difference vs Placebo Estimate: -10.49 min
  Wake After Persistent Sleep LS Mean: 35.95 min
  Wake After Persistent Sleep LS Mean Difference vs placebo Estimate: 1.33 min
  Wake After Sleep Onset LS Mean: 36.46 min
  Wake After Sleep Onset LS Mean Difference vs placebo Estimate: 0.93 min
[1]; [4]
  PSG Awakenings LS Mean: 5.71
  PSG Awakenings LS Mean Difference vs Placebo Estimate: 1.22
  PSG N1 Latency LS Mean: 2.89 min
  PSG N1 Latency LS Mean Difference vs Placebo Estimate: -2.47 min
  PSG N2 Latency LS Mean: 4.72 min
  PSG N2 Latency LS Mean Difference vs Placebo Estimate: -1.93 min
  PSG N3 Latency LS Mean: 15.83 min
  PSG N3 Latency LS Mean Difference vs Placebo Estimate: -11.45 min
  PSG Per. Slp LS Mean: 4.50 min
  PSG Per. Slp LS Mean Difference vs Placebo Estimate: -2.37 min
  PSG REM Latency LS Mean: 84.57 min
  PSG REM Latency LS Mean Difference vs Placebo Estimate: 29.64 min
  PSG Sleep Efficiency LS Mean: 84.65%
  PSG Sleep Efficiency LS Mean Difference vs Placebo Estimate: −2.06%
  PSG Sleep Onset LS Mean: 2.94 min
  PSG Sleep Onset LS Mean Difference vs Placebo Estimate: -1.04 min
  PSG Spontaneous Arousal Index LS Mean: 8.26
  PSG Spontaneous Arousal Index LS Mean Difference vs Placebo Estimate: −0.67
  PSG Spontaneous Arousal LS Mean: 41.46
  PSG Spontaneous Arousal LS Mean Difference vs Placebo Estimate: −3.61
  PSG Stage N1 % LS Mean: 6.08%
  PSG Stage N1 % LS Mean Difference vs Placebo Estimate: 0.00%
  PSG Stage N1 Duration LS Mean: 18.05 min
  PSG Stage N1 Duration LS Mean Difference vs Placebo Estimate: -0.35 min
  PSG Stage N2 % LS Mean: 48.93%
  PSG Stage N2 % LS Mean Difference vs Placebo Estimate: 2.22%
  PSG Stage N2 Duration LS Mean: 147.83 min
  PSG Stage N2 Duration LS Mean Difference vs Placebo Estimate: 3.76 min
  PSG Stage N3 % LS Mean: 29.36%
  PSG Stage N3 % LS Mean Difference vs Placebo Estimate: 3.53%
[1]; LD: Compound A 44 mg
  Stage N3 Duration LS Mean: 81.05 min
  Stage N3 Duration LS Mean Difference vs placebo Estimate: -0.34 min
  Stage REM % LS Mean: 20.70%
  Stage REM % LS Mean Difference vs placebo Estimate: −0.68%
  Stage REM Duration LS Mean: 60.76 min
  Stage REM Duration LS Mean Difference vs placebo Estimate: -5.80 min
  Stage Wake % LS Mean: 10.65%
  Stage Wake % LS Mean Difference vs placebo Estimate: 0.35%
  Stage Wake Duration LS Mean: 35.55 min
  Stage Wake Duration LS Mean Difference vs placebo Estimate: 0.02 min
  Total Arousal Index LS Mean: 10.07
  Total Arousal Index LS Mean Difference vs placebo Estimate: 0.08
  Total Arousal LS Mean: 47.56
  Total Arousal LS Mean Difference vs placebo Estimate: −2.85
  Total Leg Movements LS Mean: 12.59
  Total Leg Movements LS Mean Difference vs placebo Estimate: −6.35
  Total Leg Movements N1 LS Mean: 1.60
  Total Leg Movements N1 LS Mean Difference vs placebo Estimate: 0.34
  Total Leg Movements N2 LS Mean: 6.04
  Total Leg Movements N2 LS Mean Difference vs placebo Estimate: −2.51
  Total Leg Movements N3 LS Mean: 0.65
  Total Leg Movements N3 LS Mean Difference vs placebo Estimate: −0.97
  Total Leg Movements REM LS Mean: 3.44
  Total Leg Movements REM LS Mean Difference vs placebo Estimate: −2.31
  Total Leg Movements with Awakening LS Mean: 0.68
  Total Leg Movements with Awakening LS Mean Difference vs placebo Estimate: −1.07
  Total Leg Movements with Microarous LS Mean: 2.35
  Total Leg Movements with Microarous LS Mean Difference vs placebo Estimate: 0.34
  Total Leg Movements with Resp Event LS Mean: 0.16
  Total Leg Movements with Resp Event LS Mean Difference vs placebo Estimate: 0.11
  Total Leg Movements without Arousal LS Mean: 10.21
  Total Leg Movements without Arousal LS Mean Difference vs placebo Estimate: −6.71
  Total Recording Time LS Mean: 342.50 min
  Total Recording Time LS Mean Difference vs placebo Estimate: -14.40 min
  Total Sleep Time LS Mean: 291.34 min
  Total Sleep Time LS Mean Difference vs Placebo Estimate: -18.13 min
  Wake After Persistent Sleep LS Mean: 33.78 min
  Wake After Persistent Sleep LS Mean Difference vs placebo Estimate: -0.85 min
  Wake After Sleep Onset LS Mean: 35.55 min
  Wake After Sleep Onset LS Mean Difference vs placebo Estimate: 0.02 min
[1]; [5]
  PSG Awakenings LS Mean: 4.74
  PSG Awakenings LS Mean Difference vs Placebo Estimate: 0.25
  PSG N1 Latency LS Mean: 3.60 min
  PSG N1 Latency LS Mean Difference vs Placebo Estimate: -1.76 min
  PSG N2 Latency LS Mean: 3.91 min
  PSG N2 Latency LS Mean Difference vs Placebo Estimate: -2.74 min
  PSG N3 Latency LS Mean: 21.94 min
  PSG N3 Latency LS Mean Difference vs Placebo Estimate: -5.33 min
  PSG Per. Slp LS Mean: 5.96 min
  PSG Per. Slp LS Mean Difference vs Placebo Estimate: -0.91 min
  PSG REM Latency LS Mean: 75.10 min
  PSG REM Latency LS Mean Difference vs Placebo Estimate: 20.16 min
  PSG Sleep Efficiency LS Mean: 84.95%
  PSG Sleep Efficiency LS Mean Difference vs Placebo Estimate: −1.77%
  PSG Sleep Onset LS Mean: 2.71 min
  PSG Sleep Onset LS Mean Difference vs Placebo Estimate: -1.28 min
  PSG Spontaneous Arousal Index LS Mean: 8.58
  PSG Spontaneous Arousal Index LS Mean Difference vs Placebo Estimate: −0.36
  PSG Spontaneous Arousal LS Mean: 40.21
  PSG Spontaneous Arousal LS Mean Difference vs Placebo Estimate: −4.86
  PSG Stage N1 % LS Mean: 5.69%
  PSG Stage N1 % LS Mean Difference vs Placebo Estimate: −0.39%
  PSG Stage N1 Duration LS Mean: 16.29 min
  PSG Stage N1 Duration LS Mean Difference vs Placebo Estimate: -2.12 min
  PSG Stage N2 % LS Mean: 46.04%
  PSG Stage N2 % LS Mean Difference vs Placebo Estimate: −0.66%
  PSG Stage N2 Duration LS Mean: 134.21 min
  PSG Stage N2 Duration LS Mean Difference vs Placebo Estimate: -9.86 min
  PSG Stage N3 % LS Mean: 27.65%
  PSG Stage N3 % LS Mean Difference vs Placebo Estimate: 1.82%
[1]; both Compound A groups (44 and 112 mg), recovery sleep
  PSG sleep efficiency, arousals, and total sleep compared with placebo: not different from placebo
[2]; Compound A 44 mg
  Effect on BP and pulse: minimal effect
[2]; Compound A 112 mg, mild intensity
  Drug-related TEAE of liver function test increased, number of subjects: 1 subject
[2]; Compound A 44 and 112 mg treatments
  Serious adverse events (SAEs): no SAEs were observed
[2]; change from time-matched baseline
  Changes in DBP versus Compound A plasma concentration: appeared to increase with increasing concentration
[2]; single dose 44 mg or 112 mg, slow infusion over 9 hours, healthy volunteers
  Tolerability: well-tolerated with no major safety concerns; also recorded: well tolerated overall
